The values that follow come from paper PMC7246999 (International Journal of Molecular Sciences, 2020).

The target of one data set is T1, hMPC-1 (Homo sapiens, UniProt Q9Y5U8).
T1 construct: HA tag (hemagglutinin, […]) (N); made in house; host or cells: Sf9 (Spodoptera frugiperda), baculovirus
T1 sequence (Q9Y5U8 1-109): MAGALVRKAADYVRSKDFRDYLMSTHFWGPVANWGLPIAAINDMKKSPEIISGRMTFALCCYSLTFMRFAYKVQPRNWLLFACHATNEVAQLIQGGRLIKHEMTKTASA
Kind of data set: Fluorescence quenching binding assay, purified hMPC-1 homo-complex. As to conditions: hMPC-1 in DDM micelles, room temperature, fluorescence at 338 nm, n = 3; read-out: Dissociation constant (Kd). The protocol:
(§1) In vitro fluorescence quenching was performed to measure the binding affinity of the purified hMPCs to their ligands, such as the pyruvate substrate and inhibitors, to validate their function (Figure 4). First, the equilibrium dissociation constants (Kd) of the hMPCs to pyruvate substrates were measured (Figure 4A,D).
(§2) A fluorescence analysis was performed using a LS55 spectrofluorophotometer at room temperature (Perkin Elmer, Waltham, MA, USA). The protein sample was prepared in buffer containing 50 mM Tris-HCl, 300 mM NaCl, and 0.05% DDM with a final concentration of 0.07 mg/ mL. […] Pyruvate was titrated to hMPC-1, hMPC-2, and hMPC-1/hMPC-2 up to 200mM concentrations. In the case of […], it was titrated to hMPC-1, hMPC-2, and hMPC-1/hMPC-2 up to 300uM, 200uM, 200uM concentrations, respectively. Pioglitazone was titrated to hMPC-1, hMPC-2, and hMPC-1/hMPC-2 up to 400uM, 500uM, and 400uM concentrations, respectively. All data were collected in the wavelength range of 270–450 nm (shown from 300 nm to 450 nm only) with a 1-min delay for each titration point. The dissociation constants were calculated by the maximum intensities in the 338 nm wavelength of each spectrum.

For the next data set, the target named is T2, hMPC-1/hMPC-2 (Homo sapiens, UniProt O95563+Q9Y5U8).
T2 construct: HA tag (hemagglutinin, […]) (N); HA tag (hemagglutinin, […]) (N, cleaved yes); 10x His tag (N, cleaved yes); made in house; host or cells: Sf9 (Spodoptera frugiperda), baculovirus; proteins purified singly, mixed 1:1, then FLAG-resin
T2 sequence (Q9Y5U8 1-109): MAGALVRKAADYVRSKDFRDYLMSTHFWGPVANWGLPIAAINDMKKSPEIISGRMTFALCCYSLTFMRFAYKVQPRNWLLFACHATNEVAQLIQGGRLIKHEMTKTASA
T2 sequence (O95563 1-127): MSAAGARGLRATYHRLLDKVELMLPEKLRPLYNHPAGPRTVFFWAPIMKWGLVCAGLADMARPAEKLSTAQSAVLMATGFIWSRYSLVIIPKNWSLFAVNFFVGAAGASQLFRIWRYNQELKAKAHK
Kind of data set: Fluorescence quenching binding assay, purified hMPC-1/hMPC-2 hetero-complex. As to conditions: for Kd: hMPC-1/hMPC-2 in DDM micelles, room temperature, fluorescence at 338 nm, n = 3, read-out: Dissociation constant (Kd). The protocol: as §1, §2

The target in a further data set is T3, hMPC-2 (Homo sapiens, UniProt O95563).
T3 construct: HA tag (hemagglutinin, […]) (N, cleaved yes); 10x His tag (N, cleaved yes); made in house; host or cells: Sf9 (Spodoptera frugiperda), baculovirus
T3 sequence (O95563 1-127): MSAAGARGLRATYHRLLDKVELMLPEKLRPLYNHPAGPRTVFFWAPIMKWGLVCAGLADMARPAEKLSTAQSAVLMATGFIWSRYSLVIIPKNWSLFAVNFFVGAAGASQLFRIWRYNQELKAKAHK
Kind of data set: Fluorescence quenching binding assay, purified hMPC-2 homo-complex. The following applies: hMPC-2 in DDM micelles, room temperature, fluorescence at 338 nm, n = 3; read-out: Dissociation constant (Kd). On the procedure: as §1, §2

Data set [1] concerns the molecule itself. Kind of data set: SEC; analytical SEC, HiLoad 16/600 Superdex 200 pg, 50 mM Tris-HCl (pH 7), 300 mM NaCl, 0.05% (w/v) DDM, 1 mL/min; proteins run alone or mixed 1:1 (mass ratio) at room temperature for 1 h; fractions on SDS-PAGE.

For `CC(=O)C(=O)O` [Pyruvate], the results for the dissociation constant (Kd) on hMPC-1, on hMPC-1/hMPC-2 and at hMPC-2 were 12 ± 0.77 mM, 8.91 ± 1.09 mM and 12.9 ± 0.9 mM, respectively. Moreover, the “Binding affinity of hetero-complex relative to homo-complex” value on hMPC-1/hMPC-2 (hMPC-1/hMPC-2 hetero-complex higher than homo-complex) is recorded as 1.5 fold.

In the case of `CCc1ccc(CCOc2ccc(CC3SC(=O)NC3=O)cc2)nc1` (centres unmarked) [Pioglitazone], the values for the equilibrium dissociation constant (Kd) on hMPC-1, on hMPC-1/hMPC-2 and at hMPC-2 were 0.0841 ± 0.0103 mM, 0.0603 ± 0.00611 mM and 0.0993 ± 0.0145 mM, respectively.

B1: human mitochondrial pyruvate carrier 1 (hMPC-1), C-terminally tagged (natural protein, UniProt Q9Y5U8 1-109, looked up)
chain: MAGALVRKAADYVRSKDFRDYLMSTHFWGPVANWGLPIAAINDMKKSPEIISGRMTFALCCYSLTFMRFAYKVQPRNWLLFACHATNEVAQLIQGGRLIKHEMTKTASA
notes: human mitochondrial pyruvate carrier 1 (hMPC-1); Printed mass of His-hMPC-1: 15.9 kDa; also called His-hMPC-1; human MPC-1; source: Sf9 (baculovirus), purified in DDM (TALON IMAC, gel filtration); also co-expressed with hMPC-2 in Sf9 by co-infection; not shown: FLAG, C-terminal, kept; 10x His, C-terminal, kept
For B1, in data set [1], the binding result was “binds”.
